This is an account of results in the supplement of paper PMC7224384.

Assay [1] concerns MDA-MB-453. In words: drug sensitivity score (DSS), in combination with BLU9931 (DSS (weighted AUC score)); higher = more sensitive (stronger viability decrease); extreme values may be limits of the assay. To be noted: BLU9931 100 nM; 72 h. In short, it runs like this:
(§1)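 Drug sensitivity scores come from a weighted area under a four-parameter logistic fit to percent viability, normalised per plate to control wells. Viability was based on cellular ATP read with CellTiterGlo 2.0 after 72 h at 37 °C, 5% CO2. Each 384-well plate carried FIMM Oncology set compounds in singlicate at five 10-fold dilutions, with 2000 MDA-MB-453 cells per well in medium with or without an FGFR4 inhibitor at 100 nM final.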

The subject of assay [2] is MDA-MB-453. In words: drug sensitivity score (DSS), single agent (DSS (weighted AUC score)); higher = more sensitive (stronger viability decrease); extreme values may be limits of the assay. The note with it: BLU9931 0 nM; 72 h. In outline: as §1

Each structure is given as a SMILES string.

Consider `COc1ccc(CCc2nc3cc(-c4c(C)noc4C)ccc3n2C[C@H](C)N2CCOCC2)cc1Cl` [SGC-CBP30], for which the drug sensitivity score was 9.1 in the assay with MDA-MB-453 [1] and 9 in the assay on MDA-MB-453 [2].
For `C[C@H]1CNCCCN1S(=O)(=O)c1cccc2cncc(F)c12` [Ripasudil] the same measures were 0.1 and 0.
In the same order, the values of `CNC(=O)c1cccc(-c2ccc3c(N4CCOC[C@@H]4C)nc(N4CCOC[C@@H]4C)nc3n2)c1` [Vistusertib] are 16.9 and 16.3.
Consider `COc1cc2ncnc(Oc3cccc(NC(=O)Nc4cc(C(C)(C)C(F)(F)F)on4)c3)c2cc1OC`, for which the results for the drug sensitivity score with MDA-MB-453 [1] and in the assay on MDA-MB-453 [2] were 3.2 and 5.1, respectively.
For `Nc1cc(COc2c(Cl)cc(C[C@H](N)C(=O)O)cc2Cl)c2oc(-c3ccccc3)nc2c1` [JPH203] the same measures were 1.4 and 3.
Turning to `Cc1ccc(NC(=O)c2ccc(CN3CC[C@H](N(C)C)C3)c(C(F)(F)F)c2)cc1Nc1nccc(-c2cncnc2)n1` [Bafetinib], the drug sensitivity score in the assay with MDA-MB-453 [1] and in the assay on MDA-MB-453 [2] was 0 throughout.
For `C/C(=C\c1csc(C)n1)[C@@H]1C[C@@H]2O[C@]2(C)CCC[C@H](C)[C@H](O)[C@@H](C)C(=O)C(C)(C)[C@@H](O)CC(=O)N1` [Ixabepilone], the figures for the drug sensitivity score with MDA-MB-453 [1] and in the assay with MDA-MB-453 [2] were 4.1 and 5.6, respectively.
`NS(=O)(=O)NCCNc1nonc1/C(=N/O)Nc1ccc(F)c(Br)c1` [Epacadostat]: the drug sensitivity score in the assay with MDA-MB-453 [1] and in the assay on MDA-MB-453 [2] was 0 in each case.
As for `Cc1nc(=O)c2cc(CN(C)c3ccc(C(=O)N[C@@H](CCC(=O)O)C(=O)O)s3)ccc2[nH]1` [Raltitrexed], the drug sensitivity score in the assay on MDA-MB-453 [1] worked out at 3.2; with MDA-MB-453 [2] it was 5.3.
For `Cc1cccc(-c2nn3c(c2-c2ccnc4ccc(C(N)=O)cc24)CCC3)n1` [Galunisertib] the same measures were 0 and 0.
Regarding `CN(C)CCCOc1ccc(-c2ccc3ncc4c(c3c2)n(C2CCOCC2)c(=O)n4C)cn1` [AZD0156], the drug sensitivity score is 3 in the assay with MDA-MB-453 [1] and 1.6 with MDA-MB-453 [2].
For `C[C@@H]1C[C@H]2[C@@H]3CCC4=CC(=O)C=C[C@]4(C)[C@@]3(F)[C@@H](O)C[C@]2(C)[C@@]1(O)C(=O)CO` [Dexamethasone] the same measures were 0 and 4.
On to `COc1cc2nccc(Oc3ccc(NC(=O)Nc4cc(C)on4)c(Cl)c3)c2cc1OC` [Tivozanib], for which the drug sensitivity score was 1.4 in the assay on MDA-MB-453 [1] and 2.8 with MDA-MB-453 [2].
In the case of `CCN(c1cc(-c2ccc(CN3CCOCC3)cc2)cc(C(=O)NCc2c(C)cc(C)[nH]c2=O)c1C)C1CCOCC1` [Tazemetostat], the drug sensitivity score is 0 in the assay with MDA-MB-453 [1] and 2.1 with MDA-MB-453 [2].
For `Cc1c(C(=O)Nc2ccc(N3C[C@@H](C)O[C@@H](C)C3)nc2)cccc1-c1ccc(OC(F)(F)F)cc1` [Sonidegib] the same measures were 1.4 and 5.8.
Turning to `C=CC(=O)Nc1cccc(Nc2nc(Nc3ccc(OCCOC)cc3)ncc2F)c1` [Spebrutinib], the drug sensitivity score with MDA-MB-453 [1] was 0.9; in the assay on MDA-MB-453 [2], 0.7.
In the case of `O=c1sn(-c2cccc3ccccc23)c(=O)n1Cc1ccccc1` [Tideglusib], the drug sensitivity score with MDA-MB-453 [1] and in the assay on MDA-MB-453 [2] was 0 throughout.
`O=C1CN2Cc3c(ccc(Cl)c3Cl)N=C2N1` [Anagrelide]: the drug sensitivity score with MDA-MB-453 [1] and in the assay on MDA-MB-453 [2] was 0 in each case.
Regarding `COCC1(CO)C(=O)C2CCN1CC2` (stereo unspecified) [APR-246], the drug sensitivity score in the assay with MDA-MB-453 [1] amounted to 0.4; with MDA-MB-453 [2], 0.
In the same order, the values of `CO[C@H]1C(=O)[C@]2(C)[C@@H](OC)C[C@H]3OC[C@@]3(OC(C)=O)[C@H]2[C@H](OC(=O)c2ccccc2)[C@]2(O)C[C@H](OC(=O)[C@H](O)[C@@H](NC(=O)OC(C)(C)C)c3ccccc3)C(C)=C1C2(C)C` [Cabazitaxel] are 8.8 and 14.6.
Take `CC(=O)Nc1ccc(C(=O)Nc2ccccc2N)cc1` [Tacedinaline]: the drug sensitivity score with MDA-MB-453 [1] amounted to 0.4; in the assay on MDA-MB-453 [2] it was 1.3.
Take `Cc1ccc(Nc2nccc(N(C)c3ccc4c(C)n(C)nc4c3)n2)cc1S(N)(=O)=O` [Pazopanib]: the drug sensitivity score is 0 in the assay with MDA-MB-453 [1] and 2.3 in the assay with MDA-MB-453 [2].
For `N#CC(c1ccnc(OCc2ccc(CN3CCOCC3)cc2)n1)c1nc2ccccc2s1` (stereo unspecified) [Bentamapimod] the same measures were 1.3 and 2.6.
In the same order, the values of `COc1cc2c(NC3CCN(C(C)C)CC3)nc(N3CCC(F)(F)CC3)nc2cc1OCCCN1CCCC1` [UNC0642] are 1.4 and 2.1.
On to `O=C(NC1CCNCC1)c1n[nH]cc1NC(=O)c1c(Cl)cccc1Cl` [AT7519], for which the drug sensitivity score worked out at 14.6 in the assay on MDA-MB-453 [1] and 13.2 in the assay on MDA-MB-453 [2].
Turning to `O=C(O)c1ccc2c(c1)nc(Nc1cccc(Cl)c1)c1ccncc12` [Silmitasertib], the drug sensitivity score stood at 7.6 in the assay on MDA-MB-453 [1] and 8.1 in the assay on MDA-MB-453 [2].
Consider `CC(C)Cn1cnc2c(N)nc3ccccc3c21` [Imiquimod], for which the drug sensitivity score in the assay on MDA-MB-453 [1] and with MDA-MB-453 [2] was 0 throughout.
For `Cc1c(N)nc([C@H](CC(N)=O)NC[C@H](N)C(N)=O)nc1C(=O)N[C@H](C(=O)N[C@H](C)[C@@H](O)[C@H](C)C(=O)N[C@H](C(=O)NCCc1nc(-c2nc(C(=O)NCCC[S+](C)C)cs2)cs1)[C@@H](C)O)[C@@H](OC1OC(CO)C(O)C(O)C1OC1OC(CO)C(O)C(OC(N)=O)C1O)c1cnc[nH]1` (stereo partly specified) [Bleomycin], the drug sensitivity score with MDA-MB-453 [1] and in the assay on MDA-MB-453 [2] was 0 in each case.
For the compound `CN1CC[C@@H](NC(=O)Nc2ccc(C#N)cc2)C[C@@H]1c1nc2ccccc2[nH]1` [Glasdegib], the drug sensitivity score in the assay with MDA-MB-453 [1] and with MDA-MB-453 [2] was 0 in each case.
Take `NC(=O)c1cccc2cn(-c3ccc([C@@H]4CCCNC4)cc3)nc12` [Niraparib]: the drug sensitivity score with MDA-MB-453 [1] was 1.3; with MDA-MB-453 [2], 2.3.
In the same order, the values of `O=c1[nH]c(=O)n([C@H]2C[C@H](O)[C@@H](CO)O2)cc1C(F)(F)F` [Trifluridine] are 1.2 and 2.6.
With `Nc1nc(OCc2cc(Br)cs2)c2[nH]cnc2n1` [Lomeguatrib], the drug sensitivity score in the assay with MDA-MB-453 [1] and in the assay with MDA-MB-453 [2] was 0 each time.
In the case of `COC(=O)c1ccc2c(c1)[nH]c1ncnc(NCCCN3CCCCC3)c12` [UM729], the drug sensitivity score in the assay with MDA-MB-453 [1] turned out to be 1.3; in the assay with MDA-MB-453 [2], 2.
In the same order, the values of `Cc1cn(-c2cc(NC(=O)c3ccc(C)c(Nc4nccc(-c5cccnc5)n4)c3)cc(C(F)(F)F)c2)cn1` [Nilotinib] are 1.5 and 1.7.
Turning to `CNC(=O)c1ccc(C)c(-n2c(C)cc(OCc3ccc(F)cc3F)c(Br)c2=O)c1`, the drug sensitivity score in the assay with MDA-MB-453 [1] was 0; in the assay on MDA-MB-453 [2], 0.1.
In the same order, the values of `CCOC(=O)CCNc1cc(N2CCc3ccccc3CC2)nc(-c2ccccn2)n1` [GSK-J4] are 14 and 13.2.
In the same order, the values of `COC(=O)N[C@@H](C)CNc1nccc(-c2cn(C(C)C)nc2-c2cc(Cl)cc(NS(C)(=O)=O)c2F)n1` [Encorafenib] are 0 and 0.2.
For `O=C(O)C1(C(=O)O)CCC1.[NH2-].[NH2-].[Pt+2]` [Carboplatin] the same measures were 2.6 and 2.2.
Consider `Clc1ccccc1C(c1ccccc1)(c1ccccc1)n1cccn1` [TRAM-34], for which the drug sensitivity score in the assay with MDA-MB-453 [1] worked out at 0.6; with MDA-MB-453 [2], 1.6.
In the same order, the values of `C[C@H](Nc1ncnc2nc[nH]c12)c1cc2cccc(Cl)c2c(=O)n1-c1ccccc1` [Duvelisib] are 0 and 0.
As to `COc1ncc(-c2ccc3nccc(-c4ccnnc4)c3c2)cc1NS(=O)(=O)c1ccc(F)cc1F` [Omipalisib], the drug sensitivity score in the assay with MDA-MB-453 [1] worked out at 25.1; with MDA-MB-453 [2], 23.
For the compound `CCC1=C[C@@H]2CN(C1)Cc1c([nH]c3ccccc13)[C@@](C(=O)OC)(c1cc3c(cc1OC)N(C)[C@H]1[C@@](O)(C(=O)OC)[C@H](OC(C)=O)[C@]4(CC)C=CCN5CC[C@]31[C@@H]54)C2` [Vinorelbine], the values for the drug sensitivity score in the assay with MDA-MB-453 [1] and in the assay on MDA-MB-453 [2] were 19 and 23.2, respectively.
For `O[C@H](C[C@H]1c2c(F)cccc2-c2cncn21)[C@H]1CC[C@H](O)CC1` [GDC-0919] the same measures were 0 and 0.
Consider `COc1cc(Br)c(Nc2nc(-c3c(C)nc4ncccn34)cs2)c(Br)c1` [PTC-209], for which the drug sensitivity score in the assay on MDA-MB-453 [1] is 2; in the assay with MDA-MB-453 [2], 3.2.
In the case of `CC(=O)c1cc2c(o1)C(=O)c1ccccc1C2=O` [Napabucasin], the drug sensitivity score with MDA-MB-453 [1] and with MDA-MB-453 [2] was 0 throughout.
With `Nc1nc(F)nc2c1ncn2[C@@H]1O[C@H](CO)[C@@H](O)[C@@H]1O` [Fludarabine], the drug sensitivity score in the assay on MDA-MB-453 [1] and in the assay with MDA-MB-453 [2] was 0 throughout.
With `CC1CCC(n2c3cnccc3c3cnc(Nc4ccc5c(n4)CCN(C(=O)CO)C5)nc32)CC1` (stereo unspecified) [AMG-925], the drug sensitivity score with MDA-MB-453 [1] is 3.4; with MDA-MB-453 [2], 2.6.
In the same order, the values of `CC(=O)O[C@H]1C(=O)[C@@]2(C)[C@H]([C@H](OC(=O)c3ccccc3)[C@]3(O)C[C@H](OC(=O)[C@H](O)[C@@H](NC(=O)c4ccccc4)c4ccccc4)C(C)=C1C3(C)C)[C@]1(OC(C)=O)CO[C@@H]1C[C@@H]2O` [Paclitaxel] are 15.2 and 18.3.
